According to US11214567B2, “Small molecule inhibitors of MYC and uses thereof” (The Regents of the University of Michigan, priority 2017, dated 2022):
“Also recorded” adds a separate entry of the source.

Tests used:
[1] = test system: NCI/ADR-RES; assay: MTT assay (cytotoxicity), NCI/ADR-RES; assay type: cell-based, human
Description: (§1) The evaluation of cytotoxicity was based on the reduction of MTT dye by viable cells to give purple formazan products, which can be measured spectrophotometrically at 540 nm. One hundred eighty microliters of cancer cells were seeded into 96-well plates at 3,500-4,000 cells/well and incubated at 37° C. overnight before the indicated treatments. After 72 h, 20 μl of MTT solution (3 mg/ml) was added and incubated again for 3 h. After removal of media and solubilization of formazan crystals in 150 μL of DMSO, the absorbance was measured at 570 nm. Percentage of cell growth inhibition was expressed as 1-[(A−B)/(C−B)]×100% (A, B and C were the absorbance values from experimental, blank and control cells, respectively).
(§2) KJA derivatives were tested by the MTT assay against five human cancer cell lines including ovarian cancer cell lines (OVCAR-8, NCI/ADR-RES and SKOV3) and pancreatic cancer cell lines (MIA PaCa-2 and Pac-1). […] It is important to note that the NCI/ADR-RES cell line shares a large number of karyotypic abnormalities with OVCAR-8 but expresses high levels of MDR1 (multidrug resistance protein 1)/P-glycoprotein (see, e.g., Xu, S.; et al., Proceedings of the National Academy of Sciences 2012, 109, 16348-16353), resulting in resistance to multiple anticancer drugs in clinical use, including paclitaxel and doxorubicin.

[2] = test system: SKOV3; assay: MTT assay (cytotoxicity), SKOV3; assay type: cell-based; settings: Homo sapiens, SK-OV-3, 72 h, drug concentration causing a 50% decrease in cell population
Description: as §1, §2

[3] = test system: MIA PaCa-2; assay: MTT assay (cytotoxicity), MIA PaCa-2; assay type: cell-based; settings: Homo sapiens, 72 h, drug concentration causing a 50% decrease in cell population
Description: as §1, §2

[4] = test system: Panc1; assay: MTT assay (cytotoxicity), Panc1; assay type: cell-based; settings: Homo sapiens, PANC-1, 72 h, drug concentration causing a 50% decrease in cell population
Description: as §1, §2

[5] = test system: NCI/ADR-RES cells; assay: Colony formation assay; assay type: cell-based, human; settings: 24 h treatment; low concentration
Description: Colony formation assay. Colony formation assay is an in vitro cell survival assay based on the ability of a single cell to grow into a colony. This technique was also performed to confirm the activity. Briefly, cells were plated in 96-well plates at a density of 300 cells/well and allowed to attach overnight. The next day, the corresponding compounds were added and allowed to incubate for 24 h. After exposure, cells were changed the new media and cultured until colonies were formed (7-10 days). Cells were subsequently washed and stained with a solution of crystal violet for 30 min. After staining, cells were thoroughly washed with water. Colonies were imaged on the inverted fluorescence microscope and were counted using ImageJ software.

[6] = test system: C-MYC; assay: Western blotting of C-MYC protein levels in cancer cells; assay type: cell-based, human
Description: Cells (5×10^5) were cultured in 6-well plate and treated with KJA03 at designated concentrations. After treatment, cells were lysed with cell lysis buffer on ice at 4° C., sonicated for 3 min, centrifuged (12,000 rpm, 10 min, 4° C.) and then, the supernatant was collected. Protein concentrations of supernatants were evaluated with BCA assay. Proteins were resolved in 10% SDS/PAGE and electrotransferred to Immun-Blot PVDF membrane (Bio-Rad). After blocking with 5% milk in TBST (Tris-buffered saline with 0.1% Tween 20), membranes were probed with primary antibodies (anti-PARP, anti-caspase 3 and anti-GAPDH) 1:1000 dilutions overnight at 4° C. Membranes were then washed with TBST (5 min×3), incubated with Dylight 800-conjugated secondary antibodies 1:7500 dilutions in 5% milk for 1 h at room temperature, and washed with TBST (5 min×3). Fluorescent signal was then scanned by Odyssey Imaging Systems (LI-COR Biosciences).
The effect of KJA03 on the MYC protein levels, including C-MYC and N-MYC, NCI/ADR-RES cells were treated with KJA03 at concentration of 0.1 (half IC50) and 0.2 (IC50) μM for 24 and 48 h. […] It has previously been reported that JQ1 treatment leads to down-regulation of c-MYC protein levels in osteosarcoma, leukemia and lymphoma cells (see, e.g., Mertz, J. A.; et al., Proceedings of the National Academy of Sciences 2011, 108, 16669-16674).
Experiments were conducted to further repeat the experiment and JQ1 was chosen as a positive control. As expected, expression of C-MYC was reduced by KJA03 at 24 h of treatment, correlated with previous experiment (FIG. 3).
Experiments were conducted that further performed a time-course experiment to evaluate C-MYC suppression including 2, 6, 8 24 and 48 h at concentration of 0.2 μM. To define the specificity of MYC suppression in further detail, we treated cells with a range of compound concentrations at 24 h. […] To determine whether KJA03 can suppress C-MYC in different cell lines, we next investigated the level of C-MYC in response to treatment with KJA03 at 0.2 μM using other three different OVCAR8, MIA PaCa-2 and Panc-1 cell lines.

[7] = test system: TXNIP; assay: Western blotting of TXNIP protein levels; assay type: cell-based, human; settings: NCI/ADR-RES; Western blot
[8] = test system: tumor; assay: Tumor size, body weight and gross toxicity in treated mice; assay type: in vivo
From the text: Error bars indicate Mean±SEM. and *p<0.05.

Cc1ccc(-c2noc(-c3ccccc3-n3c(-c4ccc(C)cc4)noc3=O)n2)cc1 [KJA03, 3-(P-tolyl)-4-(2-(3-(p-tolyl)-1,2,4-oxadiazol-5-yl)phenyl)-1,2,4-oxadiazol-5(4H)-one]
IC50 ([1]; Homo sapiens, NCI/ADR-RES, MTT, 72 h, drug concentration causing a 50% decrease in cell population): 200 ± 60 nM
growth of NCI/ADR-RES ([1]; MTT assay after 72 h treatment): inhibited growth
IC50 [2]: 310 ± 160 nM
IC50 [3]: 130 nM
IC50 [4]: 170 nM
colony formation in NCI/ADR-RES [5]: significantly inhibited colony formation
MYC suppression, ovarian versus pancreatic cancer cells ([6]; 0.2 μM, OVCAR8, NCI/ADR-RES, MIA PaCa-2 and Panc-1): suppresses MYC strongly in ovarian cancer cells
MYC protein levels ([6]; 0.1 (half IC50) and 0.2 (IC50) μM at 24 and 48 h): significantly reduce MYC protein levels
C-MYC protein levels, range of concentrations ([6]; MiaPaca-2): down-regulated dose-dependently
C-MYC protein levels ([6]; NCI/ADR-RES cells, 0.2 μM, 24 h): reduced C-MYC levels; also recorded: efficiently decrease the C-MYC protein levels
C-MYC suppression, time-course ([6]; NCI/ADR-RES, 0.2 μM, 2, 6, 8, 24 and 48 h): significantly suppressed only at 24 h
C-MYC protein levels, range of concentrations ([6]; NCI/ADR-RES, 24 h): decreased levels of C-MYC in a dose-dependent manner; also recorded: down-regulated dose-dependently
C-MYC protein levels, range of concentrations ([6]; OVCAR8): down-regulated dose-dependently
C-MYC protein levels, range of concentrations ([6]; Pac-1): down-regulated dose-dependently
TXNIP protein levels [7]: downregulated; also recorded: down-regulated dose-dependently
tumor sizes ([8]; mice, 10 mg/kg, *p<0.05): tumor sizes were reduced
gross toxicity such as weakness, weight loss or lethargy ([8]; mouse, in vivo): no symptoms of gross toxicity
